Values joined by “and” are separate entries in the source; they are usually repeats but may differ in a detail not shown here. Identical values can stand only once.
How the values were obtained:
[1] = tested on: ML-2; test: Acetylome analysis (Acetyl-K enrichment, LC-MS/MS); format: cell-based, human; conditions: for Acetyl-K sites regulated, Number, Histone proteins / Acetyl-K sites regulated, Number, Non-histone proteins / Acetyl-K sites regulated, Percentages, Histone proteins / Acetyl-K sites regulated, Percentages, Non-histone proteins: Fig 4G; for Acetyl-K sites: Down-regulated, % / Acetyl-K sites: Down-regulated, Number / Acetyl-K sites: Non-regulated, % / Acetyl-K sites: Non-regulated, Number / Acetyl-K sites: Quantified (total number) / Acetyl-K sites: Regulated, % / Acetyl-K sites: Regulated, Number / Acetyl-K sites: Up-regulated, % / Acetyl-K sites: Up-regulated, Number: ML-2 (Fig 4C); for Acetyl-K sites, Down-regulated / Acetyl-K sites, Up-regulated: Fig. 4C; for regulated Acetyl-K sites in Histone proteins / regulated Acetyl-K sites in Non-histone proteins: Fig. 4G; for percentage of Acetyl-K sites regulated: of 3618 quantified; for Number of proteins with 1 Acetyl-K site per protein / Number of proteins with 2 Acetyl-K sites per protein / Number of proteins with 3 Acetyl-K sites per protein / Number of proteins with 4 Acetyl-K sites per protein: distribution of acetylated sites in the acetylated proteins (Fig 4D)
Description: Cellular pellets were lysed for 15 min at 95 °C in 4% SDS, 100 mM Hepes/NaOH pH 8.0, containing 5 mM sodium butyrate and 5 mM Nicotinamide. After cooling down, lysates were incubated at 25 °C with 10 units of DNAse (Benzonase, Merk) and sonicated for 15 min in a Bioruptor for DNA shearing. Protein concentration was determined using microBCA, using BSA as standard. Samples were digested using on-bead protein aggregation capture (PAC) with ReSyn Biosciences MagReSyn® Hydoxyl microparticles (ratio Protein/Beads 1:5) in an automated King Fisher instrument (Thermo). Proteins were digested for 16 h at 37 C with LysC/Trypsin mix at a protein: enzyme ratio of 1:100 in 50 mM TEAB pH 8.0 (Trypsin Sequence grade, Sigma; LysC, Wako). The resulting peptides were speed-vac dried and dissolved in 100 µL of 200 mM HEPES pH 8.5.
Peptides (500 µg) were labeled with Thermo Scientific TMTpro 18plex™ Isobaric reagents for 1 h at 25 C. Reaction was quenched by adding 5% hydroxylamine for 15 min. Samples were pooled at a 1:1 ratio based on the total peptide amount, determined by comparing overall signal intensities on a regular LC-MS/MS run. The final mixture was desalted using a 500 mg Sep-Pak C18t cartridge (Waters) and dried prior to high pH reverse phase HPLC pre-fractionation.
Labeled peptides were fractionated offline through a high pH reverse phase chromatography using an Ultimate 3000 HPLC system equipped with a sample collector. Briefly, peptides were dissolved in 1200 µL of Buffer A (10 mM NH4OH) and loaded onto a XBridge BEH130 C18 column (3.5 µm, 250 mm length and 3.5 mm ID, Waters). Buffer B was composed of 10 mM NH4OH in 90% CH3CN. The following gradient was used at a flow rate of 500 µL/min: 0-50 min 0-25% B, 50-56 min 25-60% B, 56-57 min 60-90% B. One-minute fractions (500 µL) from […] were collected and neutralized with 10% formic acid. Based on the UV absorbance at 280 nm, 95% of the volume of 40 fractions was pooled in 5 fractions for Acetyl-Lysine enrichment. The 5% of these fractions was kept for proteome analysis. Pooled fractions were snap-frozen and lyophilized.
Lyophilized peptides (1.5 mg) from each pool were immuno-affinity purified with the PTMScan HS Acetyl-Lysine Motif (Ac−K) kit (Cell Signaling Technology). For each pool, three consecutive immuno-purifications (IPs) were performed using the manufacturer’s protocol in an automated King Fisher instrument (Thermo). Elution of purified peptides was performed in two consecutive steps of 50 μl of 0.15% TFA. Samples were desalted with C18 stage tips and eluates were vacuum dried and resuspended in 0.1% formic acid for subsequent analysis by LC−MS/MS.
LC-MS/MS was done by coupling an UltiMate 3000 RSLCnano LC system to an Orbitrap Exploris 480 mass spectrometer (Thermo Fisher Scientific). Samples were loaded into a trap column (Acclaim™ PepMap™ 100 C18 LC Columns 5 µm, 20 mm length) for 3 min at a flow rate of 10 µL/min in 0.1% FA. Peptides were then transferred to an EASY-Spray PepMap RSLC C18 column (Thermo) (2 µm, 75 µm x 50 cm) operated at 45 °C and separated using a 90 min effective gradient (buffer A: 0.1% FA; buffer B: 100% ACN, 0.1% FA) at a flow rate of 250 nL/min. The gradient used was, from 4% to 6% of buffer B the first 2 min, from 6% to 33% B the next 58 min, plus 10 additional minutes at 98% B.
The mass spectrometer was operated in a data-dependent mode, with an automatic switch between MS and MS/MS scans using a top 15 method. (Intensity threshold ≥ 1e4, dynamic exclusion of 20 sec and excluding charges unassigned, +1 and ≥ +7). MS spectra were acquired from 350 to 1500 m/z with a resolution of 60,000 FMHW (200 m/z). Ion peptides were isolated using a 0.7 Th window and fragmented using higher-energy collisional dissociation (HCD) with a normalized collision energy NCE of 36. MS/MS spectra were acquired with a fixed first mass of 120 m/z and a resolution of 45,000 FMHW (200 m/z). […]

[2] = tested on: ML-2; test: Differentiation-apoptosis assay, CD11b / annexin-V / Sytox Green / myeloid markers flow cytometry; format: cell-based, human; design: Cell viability: concentration or dose not given beside the values; CD11b levels: unit not given here; conditions: for percentage of CD11b: ML-2, 260 nM CM-444 or 210 nM CM-1758 daily for 4 days, before injection; for CD11b / Cell viability: replicates (Fig 4A); for differentiation level (CD11b): ML-2, after 6–8 days of treatment; for CD11b levels: ML-2 treated daily for 48 h, replicates (Fig 6E)
Description: Next, the cells were washed twice with phosphate-buffered saline (PBS) and resuspended in 1X Binding Buffer at a concentration of 1 × 10^6 cells/mL. An 8-µL aliquot of APC-CD11b (BD Pharmingen, Franklin Lakes, NJ, USA) and 1 µL of FITC annexin-V (AV) (BD Pharmingen, Franklin Lakes, NJ, USA) antibodies were added and incubated for 15 min at room temperature in the dark. Finally, after the addition of 400 µL of 1X Binding Buffer to each tube, samples were collected on a BD FACSCanto flow cytometer (Becton Dickinson, San Jose, CA, USA) and analyzed using FlowJo software.
For the rest of experiments, the mix of antibodies (2 µL of BV786-CD13, Cat No, 744748 BD; 1 µL of diluted 1:10 antibody of PB-HLADR, Cat No 307633, Biolegend; 5 µL of APCH7-CD14, Cat No 641394, BD) was added to 10 µL of Brilliant Stain Buffer Plus (Becton Dickinson, San Jose, CA, USA). Then, 1 million cells (volume of 250 µL) were added and incubated for 30 min at room temperature in darkness. After 10 min incubation at room temperature with 2 mL of FACSLysing 1X, cells were centrifuged at 540 g for 5 min and washed twice with FACSBuffer. Finally, after centrifugation at 540 g for 5 min cells were resuspended in FACSBuffer.

[3] = ML-2, first (superseded) acetylome experiment, peer review file
[4] = ML-2, daily treatment, time 0 days, replicates 1-3 (Figure 2B)
[5] = ML-2, daily treatment, time 2 days, replicates 1-3 (Figure 2B)
[6] = ML-2, daily treatment, time 4 days, replicates 1-3 (Figure 2B)
[7] = ML-2, daily treatment, time 6 days, replicates 1-3 (Figure 2B)
[8] = ML-2, daily treatment, time 8 days, replicates 1-3 (Figure 2B)
[9] = ML-2 cell line, replicates 1-3 (Figure 2A)

Compound: COc1cc2nc(-c3ccc(C)o3)cc(NCC3CCN(c4ncc(C(=O)NO)cn4)CC3)c2cc1OC [CM-444, 2-[4-[[[6,7-dimethoxy-2-(5-methyl-2-furyl)-4-quinolyl]amino]methyl]-1-piperidyl]pyrimidine-5-carbohydroxamic acid]
- Number of proteins with >5 Acetyl-K sites per protein [1]: 14
- Acetyl-K sites regulated, Number, Histone proteins [1]: 58
- Acetyl-K sites regulated, Number, Non-histone proteins [1]: 766
- Acetyl-K sites regulated, Percentages, Histone proteins [1]: 7
- Acetyl-K sites regulated, Percentages, Non-histone proteins [1]: 93
- Acetyl-K sites: Down-regulated, % [1]: 11.9%
- Acetyl-K sites: Down-regulated, Number [1]: 429
- Acetyl-K sites: Non-regulated, % [1]: 77.2%
- Acetyl-K sites: Non-regulated, Number [1]: 2794
- Acetyl-K sites: Quantified (total number) [1]: 3618
- Acetyl-K sites: Regulated, % [1]: 22.8%
- Acetyl-K sites: Regulated, Number [1]: 824
- Acetyl-K sites: Up-regulated, % [1]: 10.9%
- Acetyl-K sites: Up-regulated, Number [1]: 395
- fraction of regulated acetylation sites upregulated ([1]; ML-2, 25% GI50, 12 h): 47.9%
- Acetyl-K sites, Down-regulated ([1]; ML-2, 25% GI50, 12 h): 429
- Acetyl-K sites, Up-regulated ([1]; ML-2, 25% GI50, 12 h): 395
- regulated Acetyl-K sites in Histone proteins ([1]; ML-2, 25% GI50, 12 h): 58
- regulated Acetyl-K sites in Non-histone proteins ([1]; ML-2, 25% GI50, 12 h): 766
- percentage of Acetyl-K sites regulated ([1]; ML-2, 25% GI50, 12 h): 22.8%
- acetyl K-sites regulated specifically by the compound [1, 3]: 202
- fraction of regulated acetylation sites upregulated [1, 3]: 49.7%
- Number of proteins with 1 Acetyl-K site per protein [1]: 421
- Number of proteins with 2 Acetyl-K sites per protein [1]: 79
- Number of proteins with 3 Acetyl-K sites per protein [1]: 29
- Number of proteins with 4 Acetyl-K sites per protein [1]: 14
- percentage of CD11b [2]: > 90%
- CD11b (%) ([2]; ML-2, 48 h): 80.1%
- CD13 (%) ([2]; ML-2, 48 h): 100%
- CD14 (%) ([2]; ML-2, 48 h): 5.20%
- HLA-DR (%) ([2]; ML-2, 48 h): 35.7%
- CD11b ([2]; ML-2, 48 h): 89.5% and 75.9% and 74.5%
- Cell viability ([2]; ML-2, 48 h): 80.4% and 75.1% and 78.2%
- differentiation level (CD11b) [2]: ~90%
- Annexin-V (%) [2, 4]: 0% and 1.81% and 2.3%
- CD11b (%) [2, 4]: 9.3% and 9.32% and 7.24%
- Annexin-V (%) [2, 5]: 0% and 8.27% and 5.87%
- CD11b (%) [2, 5]: 24.52% and 30.8% and 32.5%
- Annexin-V (%) [2, 6]: 7.16% and 8.18% and 7.5%
- CD11b (%) [2, 6]: 47.58% and 64.3% and 58.4%
- Annexin-V (%) [2, 7]: 12.1% and 4.47% and 9.8%
- CD11b (%) [2, 7]: 89.87% and 81.3% and 87.3%
- Annexin-V (%) [2, 8]: 10.64% and 10.25% and 11.25%
- CD11b (%) [2, 8]: 92.1% and 91.7% and 93.4%
- CD11b (%) [2, 9]: 86.3% and 76.9% and 74.7%
- CD11b levels [2]: 70.9 and 75.6 and 72.7

Compound: COc1cc2nc(-c3cc(C)oc3C)cc(NCC3CCN(c4ncc(C(=O)NO)cn4)CC3)c2cc1OC [CM-1758, 2-[4-[[[2-(2,5-dimethyl-3-furyl)-6,7-dimethoxy-4-quinolyl]amino]methyl] -1-piperidyl]pyrimidine-5-carbohydroxamic acid]
- Number of proteins with >5 Acetyl-K sites per protein [1]: 14
- Acetyl-K sites regulated, Number, Histone proteins [1]: 55
- Acetyl-K sites regulated, Number, Non-histone proteins [1]: 681
- Acetyl-K sites regulated, Percentages, Histone proteins [1]: 7.5
- Acetyl-K sites regulated, Percentages, Non-histone proteins [1]: 92.5
- Acetyl-K sites: Down-regulated, % [1]: 10.9%
- Acetyl-K sites: Down-regulated, Number [1]: 395
- Acetyl-K sites: Non-regulated, % [1]: 79.7%
- Acetyl-K sites: Non-regulated, Number [1]: 2882
- Acetyl-K sites: Quantified (total number) [1]: 3618
- Acetyl-K sites: Regulated, % [1]: 20.3%
- Acetyl-K sites: Regulated, Number [1]: 736
- Acetyl-K sites: Up-regulated, % [1]: 9.4%
- Acetyl-K sites: Up-regulated, Number [1]: 341
- fraction of regulated acetylation sites upregulated ([1]; ML-2, 25% GI50, 12 h): 46.3%
- Acetyl-K sites, Down-regulated ([1]; ML-2, 25% GI50, 12 h): 395
- Acetyl-K sites, Up-regulated ([1]; ML-2, 25% GI50, 12 h): 341
- regulated Acetyl-K sites in Histone proteins ([1]; ML-2, 25% GI50, 12 h): 55
- regulated Acetyl-K sites in Non-histone proteins ([1]; ML-2, 25% GI50, 12 h): 681
- percentage of Acetyl-K sites regulated ([1]; ML-2, 25% GI50, 12 h): 20.3%
- acetyl K-sites regulated specifically by the compound [1, 3]: 80
- fraction of regulated acetylation sites upregulated [1, 3]: 61.2%
- Number of proteins with 1 Acetyl-K site per protein [1]: 381
- Number of proteins with 2 Acetyl-K sites per protein [1]: 73
- Number of proteins with 3 Acetyl-K sites per protein [1]: 31
- Number of proteins with 4 Acetyl-K sites per protein [1]: 6
- percentage of CD11b [2]: > 90%
- CD11b (%) ([2]; ML-2, 48 h): 75.6%
- CD13 (%) ([2]; ML-2, 48 h): 98.6%
- CD14 (%) ([2]; ML-2, 48 h): 2.86%
- HLA-DR (%) ([2]; ML-2, 48 h): 17.4%
- CD11b ([2]; ML-2, 48 h): 64.3% and 61.7% and 64.6%
- Cell viability ([2]; ML-2, 48 h): 89.3% and 72.6% and 87.1%
- differentiation level (CD11b) [2]: ~90%
- Annexin-V (%) [2, 4]: 0% and 1.81% and 2.3%
- CD11b (%) [2, 4]: 9.3% and 9.32% and 7.24%
- Annexin-V (%) [2, 5]: 0% and 5.74% and 8.47%
- CD11b (%) [2, 5]: 46.98% and 27.2% and 35.8%
- Annexin-V (%) [2, 6]: 10.26% and 4.49% and 5.25%
- CD11b (%) [2, 6]: 56.51% and 40.8% and 55.87%
- Annexin-V (%) [2, 7]: 4.87% and 1.99% and 9.87%
- CD11b (%) [2, 7]: 77.98% and 70% and 78.6%
- Annexin-V (%) [2, 8]: 5.37% and 6.87% and 10.45%
- CD11b (%) [2, 8]: 88.06% and 83.2% and 89.7%
- CD11b (%) [2, 9]: 53.45% and 67.6% and 52.5%
- CD11b levels [2]: 45.9 and 51.7 and 43.7
